≈ marks a conversion by molar mass, not a printed value. Like-named read-outs stand apart in the source and are kept apart here.
Assays:
[1] = test system: H. pylori UNT189-1 (ATCC43504); test: MIC by agar dilution (MHIIb agar), strain UNT189-1; format: cell-based; conditions: Helicobacter pylori, 72 h
Description: (§1) (a) Sample Plate Preparation: Aliquots of a 2-fold serial dilution of Hexyl-SerMe-Immucillin A (from 62.5 μg/mL-6.25 μg/mL in DMSO, 0.02 mL) were mixed into separate 2 mL molten MHIIb agar, and poured into separate wells on each well of a 12-well plate, allowed to set for 20-30 minutes and dry in a biosafety cabinet for 10 minutes prior to Inoculation.
(§2) (b) Inoculation: Frozen inoculate stock of H. pylori strains UNT020-1 (Sydney Strain SS1) and UNT189-1 (ATCC43504) was separately streaked onto Columbia+5% sheep blood agar and microaerophilically incubated for 72 h at 37° C. The plate cultures of the H. pylori strains were then harvested in 0.9% sterile saline solution and the OD at 530 nm of the suspension was determined. The OD of each suspension was adjusted to 1.5-2.0 by dilution into 0.9% sterile saline. The UNT020-1 suspension was further diluted 2:5, but the UNT189-1 suspension was not further diluted, and these were used to inoculate the agar plates. Samples of the suspensions (3 μL) were spotted onto the MHIIb agar wells in the 12-well plate. The CFU/mL of each inoculum was confirmed by generating a 10-fold serial dilution of each inoculum in 0.9% sterile saline and spotting 8 μL of each dilution onto Columbia+5% sheep blood agar plates. After allowing the spots to dry for 10 min, the plates were placed into a microaerophilic chamber and incubated at 37° C. for 72 h.

[2] = Concentration in mouse gastric mucin after a single oral dose; format: in vivo; conditions: for concentration at 0.25 h / concentration at 0.5 h / concentration at 1 h / concentration at 2 h / concentration at 4 h / concentration at 8 h / concentration at 12 h / concentration at 24 h: C57/BL6, mouse, gastric mucin, po, 10 mg/kg, mouse; for concentration at 0.25 h: 0.25 h after single dose 10 mg/kg PO; for concentration at 0.5 h: 0.50 h after single dose 10 mg/kg PO; for concentration at 1 h: 1.00 h after single dose 10 mg/kg PO; for concentration at 2 h: 2.00 h after single dose 10 mg/kg PO; for concentration at 4 h: 4.00 h after single dose 10 mg/kg PO; for concentration at 8 h: 8.00 h after single dose 10 mg/kg PO; for concentration at 12 h: 12.0 h after single dose 10 mg/kg PO; for concentration at 24 h: 24.0 h after single dose 10 mg/kg PO
Description: (a) Oral Dosing of Mice with 10 mg/kg Hexyl-SerMe-Immucillin A: Female C57/BL6 mice ranging from 5-6 weeks in age and 18-22 grams in weight (Harlan Laboratories) were dosed by oral gavage with of Hexyl-SerMe-Immucillin A (0.4 mL of a 0.5 mg/mL solution in water for injection).
(b) Mucin Sampling: Mice (3 mice/time point) were euthanized via CO2 inhalation at 0.25, 0.5, 1, 2, 4, 8, 12 and 24 h, then the mucin layer was scraped from the longitudinally dissected stomach using a glass slide, collected and weighed.
(c) Preparation of Gastric Mucin Homogenates: Approximately 30 mg of mouse mucin was weighted into a 2 mL homogenizer tube (prefilled with 3.0 mm i.d. zirconium beads) and mixed with 0.2 mL PBS buffer. This was homogenized for 3 min at 4,000 rpm in a Beadbug D1030 (Benchmark Scientific) homogenizer.
(d) Extraction of Gastric Mucin Homogenates: Samples of mucin homogenate (50 μL) and of internal standard (see below) in water (10 μL) were treated with trichloroacetic acid (30% w/v, 30 μL), diluted with water (160 μL), vortexed for 10 sec and sonicated for 10 min, then centrifuged at 14,500 rpm for 5 min. A sample of the supernatant (160 μL) was transferred into autosampler vials. The internal standard was Butylthio-DADMe-Immucillin-H at 5.0 and 20.0 μg/mL.
(f) HPLC-MS-MS Analysis: Aliquots of supernatant (10 μL) were injected for analysis on Surveyor HPLC system (Thermo) fitted with an ACE 3 C18 Column (50×3 mm, 3 μm particles), with gradient elution at 30° C. with 400 μL/min mobile phase comprised of mixtures of 0.1% trifluoroacetic acid in water (A) and methanol (B) as follows: 0-5 min, A:B 9:1; 5-6.1 min, A:B 1:9; 6.1-10 min A:B 9:1. Hexyl-SerMe-Immucillin A eluted at 4.41±0.003 min. Detection was ESI MS/MS using a LCQ Deca (Thermo) in selected-reaction monitoring (SRM) positive mode using the MS/MS event m/z 292.2→147.2 and ion spray voltage of 4.5 kV.

[3] = test system: H. pylori UNT020-1 (Sydney Strain SS1); test: MIC by agar dilution (MHIIb agar), strain UNT020-1; format: cell-based; conditions: Helicobacter pylori, 72 h
Description: as §1, §2

[4] = female, read-out: concentration in gastric mucin, Animal-1
[5] = female, read-out: concentration in gastric mucin, Animal-2
[6] = female, read-out: concentration in gastric mucin, Animal-3
[7] = female, read-out: concentration in gastric mucin, Mean

CCCCCC[C@@H](CO)NCc1c[nH]c2c(N)ncnc12 [Hexyl-SerMe-Immucillin A, (2S)-2-[({4-Amino-5H-pyrrolo[3,2-d]pyrimidin-7-yl}methyl)amino]octan-1-ol]
MIC [1]: 1.9 ng/mL (≈ 6.52 nM) | concentration at 0.25 h [2, 4]: 60400 ng/g | concentration at 0.25 h [2, 5]: 64400 ng/g | concentration at 0.25 h [2, 6]: 45900 ng/g | concentration at 0.25 h [2, 7]: 56900 ng/g | concentration at 0.5 h [2, 4]: 46200 ng/g | concentration at 0.5 h [2, 5]: 90200 ng/g | concentration at 0.5 h [2, 6]: 60200 ng/g | concentration at 0.5 h [2, 7]: 65500 ng/g | concentration at 1 h [2, 4]: 20400 ng/g | concentration at 1 h [2, 5]: 12200 ng/g | concentration at 1 h [2, 6]: 12000 ng/g | concentration at 1 h [2, 7]: 14900 ng/g | concentration at 2 h [2, 4]: 2020 ng/g | concentration at 2 h [2, 5]: 1080 ng/g | concentration at 2 h [2, 6]: 16200 ng/g | concentration at 2 h [2, 7]: 6440 ng/g | concentration at 4 h [2, 4]: 670 ng/g | concentration at 4 h [2, 5]: 3740 ng/g | concentration at 4 h [2, 6]: 910 ng/g | concentration at 4 h [2, 7]: 1770 ng/g | concentration at 8 h [2, 4]: 650 ng/g | concentration at 8 h [2, 5]: 1620 ng/g | concentration at 8 h [2, 6]: 530 ng/g | concentration at 8 h [2, 7]: 930 ng/g | concentration at 12 h [2, 4]: 960 ng/g | concentration at 12 h [2, 5]: 950 ng/g | concentration at 12 h [2, 6]: 330 ng/g | concentration at 12 h [2, 7]: 740 ng/g | concentration at 24 h [2, 4]: 540 ng/g | concentration at 24 h [2, 5]: 390 ng/g | concentration at 24 h [2, 6]: 300 ng/g | concentration at 24 h [2, 7]: 410 ng/g | Cmax ([2]; female, C57/BL6, mouse gastric mucin, 10 mg/kg oral gavage): 65500 ng/g | half-life ([2]; female, C57/BL6, mouse gastric mucin, 10 mg/kg oral gavage, read-out: terminal half-life (converted)): 2.72 h | total exposure [AUC(0-inf)] ([2]; mouse gastric mucin, 10 mg/kg oral gavage): 78.6 µg·h/g | MIC [3]: 1.9 ng/mL (≈ 6.52 nM)
